Test results reported in PMC12948223, “HSP70 Interactome‐Mediated Proteolysis Targeting Chimera (HSP70‐PROTAC) for Ferroptosis‐Driven Cancer Treatment” (Advanced Science, 2025).
pKd: −log10 of the molar value. Read-outs that look alike come from different tables or passages of the source.

Tests used:
[1] = target: T1, Hsc70 in the presence of GPX4 protein (Homo sapiens, UniProt P11142+P36969); assay: SPR ternary-complex binding (GDAz-3 preincubated with GPX4, Hsc70 immobilized)
T1 construct: purchased MedChemExpress (Hsc70); Cayman (GPX4) HY-P73915A; 26 906
Protocol: The SPR data was generated by our Shared Instrumentation Core Facility at the Hangzhou Institute of Medicine (HIM), Chinese Academy of Sciences. The in vitro binding affinity of compound GDAz‐3 to recombinant proteins (Hsc70, MedChemExpress, #HY‐P73915A; GPX4, Cayman, Item No. 26 906) was evaluated using a Biacore 8K system (Cytiva (GE)) with the method of LMW multi‐cycle kinetics/affinity. Pipelines and chips were flushed with PBS (pH 7.4) running buffer, and then, human Hsc70 was immobilized on a CM5 sensor chip. Analysis was performed at a flow rate of 30 µL min^−1 at 25 °C with the injection of incremental concentrations of compounds dissolved in buffer solution (the final concentration of DMSO was 5%). For ternary‐complex binding measurements, Hsc70 was immobilized on a CM5 sensor chip, and compound GDAz‐3 at a concentration of 1 µM was preincubated with GPX4. The binding and dissociation durations were recorded as response unit values for 120 and 120 s in succession, respectively. Finally, the data were analyzed by Biacore evaluation software with the method of LMW multi‐cycle kinetics/affinity.

GPX4 [2] = target: T2, GPX4 (Homo sapiens, UniProt P36969); assay: GPX4 and 4-HNE in HT1080 xenograft tumor tissue (IHC, western blot); format: in vivo, nude mice; set-up: from tissue; host or cells: HT1080 xenograft tumour tissue from BALB/c nude mice
T2 sequence (P36969 1-170 isoform P36969-2): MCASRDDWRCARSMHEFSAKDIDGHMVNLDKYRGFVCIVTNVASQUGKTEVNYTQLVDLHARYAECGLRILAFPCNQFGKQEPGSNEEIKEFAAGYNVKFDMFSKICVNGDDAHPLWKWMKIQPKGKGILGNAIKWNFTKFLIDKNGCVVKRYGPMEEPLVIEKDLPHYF
Description: In addition, the tumor samples from the six treatment groups were randomly collected and probed for the levels of GPX4, and 4‐HNE (4‐hydroxynonenal, a lipid peroxidation marker) by immunohistochemistry (IHC) staining (Figure 7G). […] Collectively, the HSP70‐PROTAC GDAz‐3 has been confirmed as an effective ferroptosis‐inducing agent, which can degrade GPX4 both in vitro and in vivo via UPS and CMA dual processes.
The experimental procedures of the animal experiments were permitted by the Hangzhou Institute of Medicine (HIM), Chinese Academy of Sciences (AP2024‐07‐0010). Male BALB/c nude mice (6 weeks old) were housed under pathogen‐free conditions, maintained at a constant room temperature, and fed standard rodent chow and water. An HT1080 fibrosarcoma xenograft model in nude mice was established through subcutaneous transplantation. When the tumors emerged, the mice were randomly divided into six groups with six mice in each group: […], including the vehicle group, and each of the two inhibitor‐treated groups (ML162 and apoptozole) at 30 mg kg^−1, and their combinations. […] Body weight and tumor size were measured every other day, and the tumor volume and body weight were recorded every other day after drug treatment. After treatment, the animals were euthanized by cervical dislocation, and the tumor bulks were peeled off and weighed. The organ tissues (tumor, heart, liver, spleen, lung, and kidney) were harvested and fixed with 4% paraformaldehyde for hematoxylin‐eosin (H&E) and immunohistochemistry (IHC) staining. In addition, the expression of GPX4 in tumor samples was analyzed in vehicle‐ and GDAz‐3‐treated groups by western blot assay.

GPX4 [3] = target: T2, GPX4; assay: GPX4 degradation by western blot in HT1080 cells; format: cell-based; set-up: determine the changes in the endogenous levels of GPX4 by western blot assay; endogenous in cells; host or cells: HT1080 fibrosarcoma cells, including siRNA-knockdown derivatives; conditions: for remaining activity at 0.5 µM: HT-1080, HT1080 cells, read-out: GPX4 % of control; for remaining activity at 1 µM: read-out: % of control (GPX4/GAPDH)
In short: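 HT1080 fibrosarcoma cells were treated 24 h with PROTACs at 0.1, 0.3, 1 and 3 µM. Endogenous GPX4 was measured by western blot of RIPA lysates, with band intensities normalized to a loading control.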

[4] = 30 and 60 mg/kg, vs vehicle group

T1 sequence (P11142 whole entry, one chain of several): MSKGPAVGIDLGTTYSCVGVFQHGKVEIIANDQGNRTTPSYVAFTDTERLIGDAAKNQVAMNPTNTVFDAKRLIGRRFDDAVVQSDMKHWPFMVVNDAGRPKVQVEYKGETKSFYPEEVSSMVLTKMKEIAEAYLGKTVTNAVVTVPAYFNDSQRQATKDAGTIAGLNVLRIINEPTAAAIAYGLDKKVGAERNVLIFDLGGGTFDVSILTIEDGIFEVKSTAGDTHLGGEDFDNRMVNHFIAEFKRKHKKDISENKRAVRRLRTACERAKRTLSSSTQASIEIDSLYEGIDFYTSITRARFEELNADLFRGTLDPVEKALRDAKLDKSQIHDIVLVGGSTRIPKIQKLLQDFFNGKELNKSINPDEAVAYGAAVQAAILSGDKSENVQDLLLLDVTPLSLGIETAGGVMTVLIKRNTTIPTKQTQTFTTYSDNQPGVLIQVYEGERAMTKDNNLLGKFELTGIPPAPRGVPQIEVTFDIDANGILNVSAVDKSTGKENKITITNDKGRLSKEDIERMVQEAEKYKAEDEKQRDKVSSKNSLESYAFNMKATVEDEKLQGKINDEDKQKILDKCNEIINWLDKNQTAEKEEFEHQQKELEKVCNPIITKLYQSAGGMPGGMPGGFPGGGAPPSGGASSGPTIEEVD

COc1ccc(-c2nc(-c3cc(C(F)(F)F)cc(C(F)(F)F)c3)n(Cc3ccc(C(=O)NCCOCCOCCOCCn4cc(COc5ccc(N(C(=O)CCl)C(C(=O)NCCc6ccccc6)c6cccs6)cc5Cl)nn4)cc3)c2-c2ccc(OC)cc2)cc1 (centres unmarked) [GDAz-3, 4-((2-(3,5-bis(trifluoromethyl)phenyl)-4,5-bis(4-methoxyphenyl)-1H-imidazol-1-yl)methyl)-N-(2-(2-(2-(2-(4-((2-chloro-4-(2-chloro-N-(2-oxo-2-(phenethylamino)-1-(thiophen-2-yl)ethyl)acetamido)phenoxy)methyl)-1H-1,2,3-triazol-1-yl)ethoxy)ethoxy)ethoxy)ethyl)benzamide]
pKd ([1]; SPR, 1 µM GDAz-3 preincubated with GPX4, immobilized Hsc70): 7.62
Cooperativity (α) ([1]; ternary complex Hsc70/GDAz-3/GPX4): 0.75
4-HNE levels in tumor (IHC) (GPX4 [2]; [4]): increase in 4‐HNE levels
GPX4 levels in tumor (IHC) (GPX4 [2]; [4]): reduction in GPX4 levels
GPX4 protein in HT1080 tumor tissue (western blot) (GPX4 [2]; single IP injection 50 mg/kg): reduce the level of GPX4 protein over the vehicle control at the 12, 24, and 36 h time points
GPX4 degradation in wild-type and CRBN- or VHL-knockdown HT1080 cells (GPX4 [3]; 0.5 µM, 24 h): promoted the degradation of GPX4
GPX4 degradation in BAG3-knockdown cells (GPX4 [3]; BAG3 siRNA HT1080 cells, 24 h): completely abolished
GPX4 degradation in CHIP-knockdown cells (GPX4 [3]; CHIP siRNA HT1080 cells, 24 h): did not induce any detectable protein degradation of GPX4
Reduction of the GPX4 protein level (GPX4 [3]; HT1080 cells, 0.1 µM, 24 h): ≈ 50%
GPX4 degradation (GPX4 [3]; HT1080 cells, 0.3 µM, 24 h (Figure 3A)): effectively triggered substantial GPX4 degradation
Sustained GPX4 degradation upon washout (GPX4 [3]; HT1080 cells, 1 µM for 24 h, then rinsed with PBS): without obvious recovery even 24 h after removal of the degrader
GPX4 protein level, degradation kinetics (GPX4 [3]; HT1080 cells, 1 µM, 8 h): obviously reduced GPX4 protein level
GPX4 degradation efficiency versus reported GPX4 degraders (GPX4 [3]; HT1080 cells, 1 µM, 24 h): comparable GPX4 degradation efficiency
GPX4 protein level, degradation kinetics (GPX4 [3]; HT1080 cells, 1 µM, 24 h): complete GPX4 depletion
DC50 (GPX4 [3]; HT1080 cells, 24 h): 130 nM
GPX4 degradation effect in combination with 3-methyladenine (3-MA) (GPX4 [3]; HT1080 cells, 24 h): partially rescued
GPX4 degradation effect after proteasome inhibitor (GPX4 [3]; HT1080 cells, MG132 5 µM for 2 h before GDAz-3 for 24 h): completely abrogated
remaining activity at 0.5 µM (GPX4 [3]; GDAz-3 0.5 µM 12 h after pre-treatment with MLN4924 2.5 µM for 2 h): 61%
remaining activity at 0.5 µM (GPX4 [3]; GDAz-3 0.5 µM, 12 h): 45%
remaining activity at 1 µM (GPX4 [3]; HT-1080, HT-1080, 1 µM, 24 h): 45%
remaining activity at 1 µM (GPX4 [3]; HT-1080, HT-1080-siRNA-LAMP2A (LAMP2A knockdown), 1 µM, 24 h): 68%
GPX4 degradation in Hsc70-knockdown cells (GPX4 [3]; Hsc70 siRNA HT1080 cells, 1 µM, 24 h): markedly abrogated
GPX4 degradation in Hsp70-knockdown cells (GPX4 [3]; Hsp70 siRNA HT1080 cells, 24 h): not affected
